The values that follow come from patent US8389500B2, “Fused heterocyclic compounds as ion channel modulators” (Gilead Sciences, Inc., priority 2008, dated 2013).

The target of series [1] is T1, hERG potassium channel (Homo sapiens, UniProt Q12809).
T1 construct: expressed in transfected cells; host or cells: CHO (Chinese Hamster Ovary)
Kind of series: hERG screening assay (PatchXpress patch clamp, CHO cells). It counts as cell-based. The note with it: hERG in CHO cells, peak current at −50 mV; for hERG Patch Clamp hERG % blk 1 μm: 1 μm test compound; for hERG Patch Clamp hERG % blk 10 μm: 10 μm test compound. As for the experimental part:
Compounds were screened to test their activity in blocking the hERG potassium channel. The hERG channel is heterologously expressed in a CHO (Chinese Hamster Ovary) cell line. Cells are maintained with standard tissue culture procedures and stable channel expression is maintained with 500 μg/ml G418 in the culture medium. Cells are harvested for testing on the PatchXpress automated patch clamp with Accumax (Innovative Cell Technologies, San Diego, Calif.) to isolate single cells.
The following solutions are used for electrophysiological recordings. The external solution contains: 2 mM CaCl2; 2 mM MgCl2; 4 mM KCl; 150 mM NaCl; 10 mM Glucose; 10 mM HEPES (pH 7.4 with 1M NaOH, osmolarity). The internal solution contains: 140 mM KCl, 10 mM MgCl2, 6 mM EGTA, 5 mM HEPES, 5 mM ATP (pH adjusted to 7.25 with KOH).
hERG channels are activated when the voltage is stepped to +20 mV from the −80 mV holding potential. During a 5 second step at +20 mV, the channels activate and then largely inactivate, so the currents are relatively small. Upon returning to −50 mV from +20 mV, hERG currents transiently become much larger as inactivation is rapidly removed and then the channel closes. The first step to −50 mV for 300 ms is used as a baseline for measuring the peak amplitude during the step to −50 mV after channel activation. The peak current at −50 mV is measured both under control conditions and after addition of compound.
All compounds are prepared as 10 mM DMSO stocks in glass vials. Stock solutions are mixed by vigorous vortexing and sonication for about 2 minutes at room temperature. For testing, compounds are diluted in glass vials using an intermediate dilution step in pure DMSO and then further diluted to working concentrations in external solution. Dilutions are prepared no longer than 20 minutes before use.
After achieving the whole-cell configuration, cells are monitored for 90 seconds to assess stability and washed with external solution for 66 seconds. The voltage protocol described above is then applied to the cells every 12 seconds and throughout the whole procedure. Only cells with stable recording parameters and meeting specified health criteria are allowed to enter the compound addition procedure.
External solution containing 0.1% DMSO (vehicle) is applied to the cells first to establish the control peak current amplitude. After allowing the current to stabilize for 3 to 5 minutes, 1 μM and then 10 μM test compounds are applied. Each compound concentration is added 4 times and cells are kept in test solution until the effect of the compound reaches steady state or for a maximum of 12 minutes. After addition of test compound, a positive control (1 μM Cisapride) is added and must block >95% of the current for the experiment to be considered valid. Washout in the external solution compartment is performed until the recovery of the current reaches steady state. Data are analyzed using DataXpress, Clampfit (Molecular Devices, Inc., Sunnyvale) and Origin 7 (Originlab Corp.)

Series [2] concerns the target T2, wild-type human cardiac sodium channel, hNav1.5 (late sodium current) (Homo sapiens, UniProt Q14524).
T2 construct: host or cells: HEK293
The experiment in a line: Late INa screening assay (PatchXpress whole cell patch clamp). The format is cell-based. The note with it: HEK293 hNav1.5, late INa generated with 10 μM Tefluthrin (some experiments 50 nM ATX II); for inhibition at 10 µM: 10 μM test compound, read-out: Late INa % blk (10 μM test cmpd); for inhibition at 1 µM: 1 μM test compound, read-out: Late INa % blk (1 μM test cmpd). In a few lines: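 Late sodium current block was assessed by automated whole cell patch clamp on a PatchXpress 7000A using HEK293 cells stably expressing wild-type human hNav1.5 without beta subunits. Late current was induced with 10 μM Tefluthrin or 50 nM ATX II. Channels were stepped from −120 mV to −20 mV for 250 ms at 0.1 Hz at 24-27° C. Current was normalized to 0Na baseline and expressed as percent block.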

T1 sequence (Q12809 whole entry): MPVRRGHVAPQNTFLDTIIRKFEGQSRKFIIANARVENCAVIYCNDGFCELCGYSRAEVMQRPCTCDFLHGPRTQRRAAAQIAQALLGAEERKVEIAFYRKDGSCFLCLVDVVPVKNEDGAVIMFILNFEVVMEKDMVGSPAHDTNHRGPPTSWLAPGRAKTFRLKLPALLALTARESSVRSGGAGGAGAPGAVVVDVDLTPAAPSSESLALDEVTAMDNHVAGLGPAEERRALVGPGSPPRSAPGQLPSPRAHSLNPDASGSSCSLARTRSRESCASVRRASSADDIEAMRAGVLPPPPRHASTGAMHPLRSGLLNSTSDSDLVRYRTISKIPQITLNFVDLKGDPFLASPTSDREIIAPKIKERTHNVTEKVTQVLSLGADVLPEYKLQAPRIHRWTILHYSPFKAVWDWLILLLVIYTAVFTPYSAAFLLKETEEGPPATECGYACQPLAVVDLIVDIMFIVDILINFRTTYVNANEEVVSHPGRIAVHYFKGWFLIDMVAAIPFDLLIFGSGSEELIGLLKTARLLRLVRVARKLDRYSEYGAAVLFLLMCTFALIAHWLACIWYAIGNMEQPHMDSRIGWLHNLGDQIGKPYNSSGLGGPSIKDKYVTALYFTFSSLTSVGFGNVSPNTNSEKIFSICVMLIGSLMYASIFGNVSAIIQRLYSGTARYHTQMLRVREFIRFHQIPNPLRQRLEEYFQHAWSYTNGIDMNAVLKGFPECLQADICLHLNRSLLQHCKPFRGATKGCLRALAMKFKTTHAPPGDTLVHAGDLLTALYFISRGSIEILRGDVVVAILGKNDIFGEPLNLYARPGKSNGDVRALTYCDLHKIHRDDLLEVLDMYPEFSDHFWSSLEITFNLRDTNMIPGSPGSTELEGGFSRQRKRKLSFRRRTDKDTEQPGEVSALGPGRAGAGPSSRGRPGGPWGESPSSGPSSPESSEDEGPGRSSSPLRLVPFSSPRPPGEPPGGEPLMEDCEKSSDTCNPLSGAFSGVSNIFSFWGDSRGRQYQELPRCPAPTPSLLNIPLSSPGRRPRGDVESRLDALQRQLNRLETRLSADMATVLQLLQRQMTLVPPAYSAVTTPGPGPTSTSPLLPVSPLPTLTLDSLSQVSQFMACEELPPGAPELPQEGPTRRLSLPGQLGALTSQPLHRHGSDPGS
T2 sequence (Q14524 whole entry): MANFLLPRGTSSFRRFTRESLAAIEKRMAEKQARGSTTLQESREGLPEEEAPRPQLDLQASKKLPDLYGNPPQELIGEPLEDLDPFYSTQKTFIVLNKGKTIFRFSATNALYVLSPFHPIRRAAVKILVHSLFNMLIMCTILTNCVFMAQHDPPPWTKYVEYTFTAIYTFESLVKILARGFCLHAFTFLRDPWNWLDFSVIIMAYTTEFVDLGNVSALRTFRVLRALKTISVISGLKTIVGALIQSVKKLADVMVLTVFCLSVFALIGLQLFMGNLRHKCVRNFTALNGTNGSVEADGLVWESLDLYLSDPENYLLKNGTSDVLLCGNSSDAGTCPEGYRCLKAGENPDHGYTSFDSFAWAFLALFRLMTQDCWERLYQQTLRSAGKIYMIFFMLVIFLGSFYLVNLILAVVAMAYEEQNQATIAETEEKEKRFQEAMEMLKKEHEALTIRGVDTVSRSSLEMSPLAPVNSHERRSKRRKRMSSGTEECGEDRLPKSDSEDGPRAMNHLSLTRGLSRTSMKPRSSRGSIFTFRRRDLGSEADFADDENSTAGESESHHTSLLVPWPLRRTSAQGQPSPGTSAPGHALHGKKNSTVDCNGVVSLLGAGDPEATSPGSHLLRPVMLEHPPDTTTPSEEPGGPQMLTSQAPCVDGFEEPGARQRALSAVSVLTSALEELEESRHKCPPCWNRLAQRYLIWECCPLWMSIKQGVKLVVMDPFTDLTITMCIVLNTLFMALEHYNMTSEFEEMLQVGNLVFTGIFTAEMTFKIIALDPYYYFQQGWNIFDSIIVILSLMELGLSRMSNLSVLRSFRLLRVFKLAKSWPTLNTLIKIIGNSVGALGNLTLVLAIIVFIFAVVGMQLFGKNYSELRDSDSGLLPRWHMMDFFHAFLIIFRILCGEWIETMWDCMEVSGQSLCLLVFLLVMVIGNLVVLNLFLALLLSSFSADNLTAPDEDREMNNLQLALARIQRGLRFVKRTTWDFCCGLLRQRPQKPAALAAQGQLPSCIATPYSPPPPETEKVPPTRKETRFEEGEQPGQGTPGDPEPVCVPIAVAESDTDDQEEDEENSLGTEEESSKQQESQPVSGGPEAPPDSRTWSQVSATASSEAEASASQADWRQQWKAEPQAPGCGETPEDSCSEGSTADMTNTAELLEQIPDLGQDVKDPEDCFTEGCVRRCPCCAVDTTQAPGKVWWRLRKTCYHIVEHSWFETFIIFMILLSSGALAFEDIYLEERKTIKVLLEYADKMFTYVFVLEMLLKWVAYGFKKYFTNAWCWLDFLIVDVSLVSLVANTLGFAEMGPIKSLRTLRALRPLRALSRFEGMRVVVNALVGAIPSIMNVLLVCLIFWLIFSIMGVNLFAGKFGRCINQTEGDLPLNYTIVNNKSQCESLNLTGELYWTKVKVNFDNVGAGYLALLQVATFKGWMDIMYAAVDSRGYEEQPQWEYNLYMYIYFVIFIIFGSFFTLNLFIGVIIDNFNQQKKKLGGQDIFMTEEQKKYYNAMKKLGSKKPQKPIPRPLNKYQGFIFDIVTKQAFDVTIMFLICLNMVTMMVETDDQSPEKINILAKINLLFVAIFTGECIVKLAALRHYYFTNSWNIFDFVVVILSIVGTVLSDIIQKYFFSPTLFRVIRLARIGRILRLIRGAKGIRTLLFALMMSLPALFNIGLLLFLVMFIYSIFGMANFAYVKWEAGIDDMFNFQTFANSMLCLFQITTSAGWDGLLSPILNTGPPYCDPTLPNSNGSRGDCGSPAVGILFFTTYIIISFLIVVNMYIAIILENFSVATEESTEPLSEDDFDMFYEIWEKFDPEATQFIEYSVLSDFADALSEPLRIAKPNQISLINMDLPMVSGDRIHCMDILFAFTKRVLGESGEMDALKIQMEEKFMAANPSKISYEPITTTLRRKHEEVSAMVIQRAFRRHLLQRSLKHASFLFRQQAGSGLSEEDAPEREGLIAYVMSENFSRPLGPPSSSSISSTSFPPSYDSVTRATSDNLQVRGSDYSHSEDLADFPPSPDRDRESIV

With `CS(=O)(=O)Nc1ccc(-c2cccc(C(F)(F)F)c2)cc1` [PT-001, N-[3′-(trifluoromethyl)biphenyl-4-yl]methanesulfonamide], in series [1], the “hERG Patch Clamp hERG % blk 1 μm” value is reported as 10% and the “hERG Patch Clamp hERG % blk 10 μm” value was determined as 66%. The inhibition at 10 µM in series [2] is 58.1%.
On to `COc1cc(NS(C)(=O)=O)ccc1-c1ccc(Cl)c(F)c1` [PT-003, N-(4′-chloro-3′-fluoro-2-methoxybiphenyl-4-yl)methanesulfonamide], for which, in series [1], the “hERG Patch Clamp hERG % blk 1 μm” value is 10% and the “hERG Patch Clamp hERG % blk 10 μm” value is given as 28.3%. In series [2], the inhibition at 1 µM was 11.2% and the inhibition at 10 µM is 58.3%.
Turning to `CS(=O)(=O)Nc1ccc(-c2ccc(C(F)(F)F)cc2)c(C(F)(F)F)c1` [PT-013, N-[2,4′-bis(trifluoromethyl)biphenyl-4-yl]methanesulfonamide], in series [1], the “hERG Patch Clamp hERG % blk 1 μm” value was 10.5% and the “hERG Patch Clamp hERG % blk 10 μm” value was found to be 29%. Also, the inhibition at 10 µM in series [2] was found to be 54.1%.
In the case of `CS(=O)(=O)Nc1ccc(-c2ccc(Cl)c(F)c2)c(Cl)c1` [PT-017, N-(2,4′-dichloro-3′-fluorobiphenyl-4-yl)methanesulfonamide], in series [1], the “hERG Patch Clamp hERG % blk 1 μm” value was 21% and the “hERG Patch Clamp hERG % blk 10 μm” value worked out at 80%. In series [2], the inhibition at 1 µM came to 34.8% and the inhibition at 10 µM is 69.5%.
Turning to `CS(=O)(=O)Nc1ccc(-c2ccc(C(F)(F)F)cc2)c(Cl)c1` [PT-018, N-[2-chloro-4′-(trifluoromethyl)biphenyl-4-yl]methanesulfonamide], in series [1], the “hERG Patch Clamp hERG % blk 1 μm” value was found to be 10% and the “hERG Patch Clamp hERG % blk 10 μm” value came out at 10%. The inhibition at 10 µM in series [2] amounted to 50.6%.
Take `CS(=O)(=O)Nc1ccc(-c2ccccc2OC(F)(F)F)c(Cl)c1` [PT-022, N-[2-chloro-2′-(trifluoromethoxy)biphenyl-4-yl]methanesulfonamide]: in series [1], the “hERG Patch Clamp hERG % blk 1 μm” value stood at 10% and the “hERG Patch Clamp hERG % blk 10 μm” value was found to be 92%. The inhibition at 10 µM in series [2] stood at 54.8%.
With `CCS(=O)(=O)Nc1ccc(-c2ccc(Cl)c(F)c2)c(Cl)c1` [PT-026, N-(2,4′-dichloro-3′-fluorobiphenyl-4-yl)ethanesulfonamide], in series [1], the “hERG Patch Clamp hERG % blk 1 μm” value was 10% and the “hERG Patch Clamp hERG % blk 10 μm” value stood at 10%. Also, in series [2], the inhibition at 1 µM amounted to 33.8% and the inhibition at 10 µM was found to be 78.5%.
Turning to `CS(=O)(=O)Nc1ccc(-c2ccc(Oc3ccccc3)cc2)cc1Cl` [PT-034, N-(3-chloro-4′-phenoxybiphenyl-4-yl)methanesulfonamide], in series [1], the “hERG Patch Clamp hERG % blk 1 μm” value is 10% and the “hERG Patch Clamp hERG % blk 10 μm” value amounted to 10%. In series [2], the inhibition at 1 µM was 25.9% and the inhibition at 10 µM stood at 69.7%.
In the case of `Cc1cc(NS(C)(=O)=O)ccc1-c1cccc(OC(F)(F)F)c1` [PT-040, N-[2-methyl-3′-(trifluoromethoxy)biphenyl-4-yl]methanesulfonamide], in series [1], the “hERG Patch Clamp hERG % blk 1 μm” value is listed as 10% and the “hERG Patch Clamp hERG % blk 10 μm” value came out at 25%. In series [2], the inhibition at 1 µM was determined as 32.5% and the inhibition at 10 µM was 68.3%.
`Cc1cc(NS(C)(=O)=O)ccc1-c1ccc(Oc2ccccc2)cc1` [PT-046, N-(2-methyl-4′-phenoxybiphenyl-4-yl)methanesulfonamide]: in series [1], the “hERG Patch Clamp hERG % blk 1 μm” value is listed as 10% and the “hERG Patch Clamp hERG % blk 10 μm” value was determined as 28.5%.
On to `O=S(=O)(Nc1ccc(-c2cccc(OC(F)(F)F)c2)c(Cl)c1)C1CC1` [PT-047, N-[2-chloro-3′-(trifluoromethoxy)biphenyl-4-yl]cyclopropanesulfonamide], for which, in series [1], the “hERG Patch Clamp hERG % blk 1 μm” value was determined as 10% and the “hERG Patch Clamp hERG % blk 10 μm” value was 28.5%. In series [2], the inhibition at 1 µM is 48.6% and the inhibition at 10 µM was determined as 77.7%.
Turning to `O=S(=O)(Nc1ccc(-c2ccc(F)c(Cl)c2)c(Cl)c1)C1CC1` [PT-049, N-(2,3′-dichloro-4′-fluorobiphenyl-4-yl)cyclopropanesulfonamide], in series [1], the “hERG Patch Clamp hERG % blk 1 μm” value is 10% and the “hERG Patch Clamp hERG % blk 10 μm” value stood at 32%. Besides, in series [2], the inhibition at 10 µM is 60.1%.
The corresponding values for `O=S(=O)(Nc1ccc(-c2ccc(OC(F)(F)F)cc2)c(Cl)c1)C1CC1` [PT-050, N-[2-chloro-4′-(trifluoromethoxy)biphenyl-4-yl]cyclopropanesulfonamide] are 2%, 47.5% and 61%.
For `O=S(=O)(Nc1ccc(-c2cccc(OC(F)(F)F)c2)cc1)C1CC1` [PT-060, N-[3′-(trifluoromethoxy)biphenyl-4-yl]cyclopropanesulfonamide], in series [1], the “hERG Patch Clamp hERG % blk 1 μm” value came to 10% and the “hERG Patch Clamp hERG % blk 10 μm” value stood at 35.5%. The inhibition at 10 µM in series [2] was determined as 54.4%.
As to `Cc1cc(N(CC(=O)O)S(C)(=O)=O)ccc1-c1ccc(Oc2ccccc2)cc1` [PT-082, N-(2-methyl-4′-phenoxybiphenyl-4-yl)-N-(methylsulfonyl)glycine], in series [1], the “hERG Patch Clamp hERG % blk 1 μm” value came out at 10% and the “hERG Patch Clamp hERG % blk 10 μm” value was determined as 10%. In series [2], the inhibition at 10 µM was found to be 19.9%.
For the compound `Cc1cc(N(Cc2ccc(C(=O)O)cc2)S(C)(=O)=O)ccc1-c1ccc(Oc2ccccc2)cc1` [PT-108, 4-{[(2-methyl-4′-phenoxybiphenyl-4-yl)(methylsulfonyl)amino]methyl}benzoic acid], in series [1], the “hERG Patch Clamp hERG % blk 1 μm” value came to 10% and the “hERG Patch Clamp hERG % blk 10 μm” value is recorded as 10%. For the same compound, the inhibition at 10 µM in series [2] stood at 55.6%.
For the compound `Cc1cc(N(Cc2cccc(C(=O)O)c2)S(C)(=O)=O)ccc1-c1ccc(Oc2ccccc2)cc1` [PT-112, 3-{[(2-methyl-4′-phenoxybiphenyl-4-yl)(methylsulfonyl)amino]methyl}benzoic acid], in series [1], the “hERG Patch Clamp hERG % blk 1 μm” value was determined as 10% and the “hERG Patch Clamp hERG % blk 10 μm” value came out at 21.5%. Moreover, the inhibition at 10 µM in series [2] stood at 35.5%.
For `CS(=O)(=O)Nc1ccc(-c2ccc(C(F)(F)F)cc2)c(N)c1` [PT-164, N-(2-amino-4′-(trifluoromethyl)biphenyl-4-yl)methanesulfonamide], in series [2], the inhibition at 10 µM stood at 12.2%.
The same measure, in the same setting: the result for `CS(=O)(=O)Nc1ccc(-c2ccc(C(F)(F)F)cc2)c(NC(=O)c2cccnc2)c1` [PT-165, N-(4-(methylsulfonamido)-4′-(trifluoromethyl)biphenyl-2-yl)nicotinamide] reads -0.3%.
